Earlier results, collected in patent US7994139B2, “Antiviral therapeutic agents” (BioCryst Pharmaceuticals, Inc., priority 2008, dated 2011).

Test system: HCV

In the case of `NC(=O)c1ncn([C@@H]2O[C@H](CO)[C@@H](O)[C@H]2O)n1` [Ribavirin, 1-β-D-ribofuranosyl-1-1,2,4-triazole-3-carboxamide], the “serum levels of HCV-RNA” value (patients, used as sole treatment) is given as “does not lower serum levels of HCV-RNA” and the “patients in whom serum amino transferase levels are reduced to normal” value (ribavirin alone) is given as 40%.
